Data from publication PMC11584650, “An inhibitory segment within G-patch activators tunes Prp43-ATPase activity during ribosome assembly” (Nature Communications, 2024).

Tests used:
[1] = target: T1, Prp43:Tma23^M (Saccharomyces cerevisiae, UniProt P53131); test: pyruvate kinase/lactate dehydrogenase coupled NADH assay, Michaelis-Menten fit; type: biochemical; details: no RNA; 20 mM MgCl2, 50 mM Hepes pH 7.5, 200 mM KCl, room temperature, ATP up to 2.5 mM
T1 construct: 1:1 complex of Prp43 with the middle (I-patch containing) domain of Tma23, co-expressed in E. coli; with Protein TMA23
Source text: pyruvate kinase/lactate dehydrogenase coupled NADH assay, Michaelis-Menten fit on Prp43:Tma23^M | We obtained kinetic parameters for the ATPase activities of Prp43, Prp43:Tma23^M and Ppr43:Pxr1^M complexes

[2] = target: T2, Prp43:Pxr1^GM (Saccharomyces cerevisiae, UniProt P53131); test: pyruvate kinase/lactate dehydrogenase coupled NADH assay, initial rate; type: biochemical; details: 2.5 mM ATP, no RNA; 20 mM MgCl2, 50 mM Hepes pH 7.5, 200 mM KCl, room temperature
T2 construct: full-length Prp43 with G-patch plus middle domain of Pxr1 (137 residues), co-expressed in E. coli; resolved Prp43 52-718 and Pxr1 122-136; with Protein PXR1
T2 sequence (P53131 whole entry, the tested form may be a part): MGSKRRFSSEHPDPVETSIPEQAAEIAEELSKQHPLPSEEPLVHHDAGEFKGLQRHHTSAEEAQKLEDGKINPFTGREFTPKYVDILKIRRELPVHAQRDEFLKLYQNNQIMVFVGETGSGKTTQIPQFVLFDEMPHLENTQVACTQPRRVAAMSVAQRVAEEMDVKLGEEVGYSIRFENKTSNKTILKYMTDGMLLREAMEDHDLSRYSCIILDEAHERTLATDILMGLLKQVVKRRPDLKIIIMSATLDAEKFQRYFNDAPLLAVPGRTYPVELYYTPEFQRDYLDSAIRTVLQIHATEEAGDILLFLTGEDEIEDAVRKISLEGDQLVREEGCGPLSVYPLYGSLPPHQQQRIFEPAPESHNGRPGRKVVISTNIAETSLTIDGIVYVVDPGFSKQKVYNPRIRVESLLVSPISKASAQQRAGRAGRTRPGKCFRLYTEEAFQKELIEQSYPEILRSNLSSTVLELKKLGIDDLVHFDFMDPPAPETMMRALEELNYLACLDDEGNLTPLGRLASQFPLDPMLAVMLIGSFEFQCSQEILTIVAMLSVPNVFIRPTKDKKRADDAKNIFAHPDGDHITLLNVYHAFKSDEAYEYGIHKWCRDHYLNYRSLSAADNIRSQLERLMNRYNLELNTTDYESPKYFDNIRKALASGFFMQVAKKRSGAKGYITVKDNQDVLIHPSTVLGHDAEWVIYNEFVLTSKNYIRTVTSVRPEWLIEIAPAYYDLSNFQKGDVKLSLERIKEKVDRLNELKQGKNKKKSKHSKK
T2 sequence (P53335 1-137 partner): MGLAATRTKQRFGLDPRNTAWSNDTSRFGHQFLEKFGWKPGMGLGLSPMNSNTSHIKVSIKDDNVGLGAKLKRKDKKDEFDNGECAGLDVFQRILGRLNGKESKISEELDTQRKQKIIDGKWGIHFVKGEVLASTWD

T1 sequence (P53131 whole entry): as the sequence (P53131 whole entry, the tested form may be a part) above
T1 sequence (Q03525 whole entry partner): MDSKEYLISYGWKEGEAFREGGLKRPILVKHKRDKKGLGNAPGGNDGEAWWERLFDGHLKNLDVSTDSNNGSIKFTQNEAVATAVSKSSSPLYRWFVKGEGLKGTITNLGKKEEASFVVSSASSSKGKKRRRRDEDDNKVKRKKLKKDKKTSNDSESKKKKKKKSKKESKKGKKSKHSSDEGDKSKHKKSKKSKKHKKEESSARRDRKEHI

Nc1ncnc2c1ncn2[C@@H]1O[C@H](COP(=O)(O)OP(=O)(O)OP(=O)(O)O)[C@@H](O)[C@H]1O [ATP]
Km [1]: 34 ± 4.56 µM
pyruvate kinase/lactate dehydrogenase coupled NADH assay, initial rate [2]: Pxr1^GM, Pxr1^GM-L33E, and Pxr1^M were co-expressed with Prp43
